# Columns and labels:
# corn rootworms = assay: Field control of corn rootworms by insecticide/polymer combinations applied to the seed; assay type: in vivo, Diabrotica spp.; settings: maize G 4733, 0-6 scale, 63 days after planting
# [1] = Solubilization of furathiocarb in aqueous surfactant solutions, UV spectroscopy; assay type: physicochemical; settings: for enhancement in the solubility (increase): 1000 ppm
# Description: This example compares the solubilization of the biocide furathiocarb in a variety of aqueous surfactant solutions (1000 ppm). Experimental Note: 5 µl of furathiocarb (∼ 0.0060-0.0070 g) is pipetted into 10 ml aqueous solutions and stirred overnight. Analysis is performed by UV spectroscopy.
# [2] = test system: Heliothis virescens larvae; assay: Systemic activity of seed applied furathiocarb, larvae caged on maize leaves; assay type: in vivo
# Description: This example includes the results of three test series using different maize cultivars F7 x F2, Centaurus and Arjuna. The basic experimental procedure is that used in example 20 therefore only differences are mentioned here.
# Seeds of the hybrid F7 x F2 are treated with 10 g/kg furathiocarb in either PVAc/PVAl or association polymer systems. Treatment techniques are described earlier. Seeds are sown in 4 soil types: 100% quartz sand, 98% quartz sand plus 2% peat, 95% quartz sand plus 5% peat and 90% quartz sand plus 10% peat. Soil moisture is maintained at 10% for the 100% and 98% sand mixtures and at 20% for the other two soil types. All percentages are based on dry weight.
# Insecticidal activity is tested by caging 5 first instar Heliothis virescens larvae on each leaf of the maize plants. The insects are caged on the leaves at 9 and 14 days after planting and are allowed to feed for 5 and 3 days respectively. The test is evaluated by counting surviving larvae and by visually assessing feeding damage. To achieve this consistently, the leaf is compared to standard diagrams and the percentage eaten is estimated as 0, 1, 2, 5, 10, 20 or 50% or the total area.
# Seeds of the hybrid Centaurus are treated with both 4 and 10 g/kg furathiocarb in either PVAc/PVAl or association polymer systems. Seeds are sown in two soil types either earth from Stein, Canton Aargau, Switzerland (exact description given earlier) or in a 98% sand 2% peat mixture. Moisture content is 20% of dry weight for the former and 10% for the latter. H. virescens is again used to test insecticidal activity. The larvae are caged on the leaves either 8 or 14 days after planting and are allowed to feed for 4 days.
# Seeds of the cultivar Arjuna are treated with 2.5 and 10 g/kg furathiocarb in either PVAc/PVAl or association polymer systems. Seeds are sown in the two soil types used in the tests of the hybrid Centaurus. H. virescens is again the test insect and the larvae are caged on individual leaves 10 and 14 days after planting; they are allowed to feed for 4 days. Only 10 g rates are tested at the second date.
# [3] = cultivar Arjuna, 98% Sand, time 1 week, Association Polymer, dosage 2.5 g
# [4] = cultivar Arjuna, 98% Sand, time 1 week, Association Polymer, dosage 10 g
# [5] = cultivar Arjuna, 98% Sand, time 1 week, PVAc/PVAl, dosage 2.5 g
# [6] = cultivar Arjuna, 98% Sand, time 1 week, PVAc/PVAl, dosage 10 g
# [7] = cultivar Arjuna, 98% Sand, time 2 weeks, Association Polymer, dosage 10 g
# [8] = cultivar Arjuna, 98% Sand, time 2 weeks, PVAc/PVAl, dosage 10 g
# [9] = cultivar Arjuna, Stein Earth, time 1 week, Association Polymer, dosage 2.5 g
# [10] = cultivar Arjuna, Stein Earth, time 1 week, Association Polymer, dosage 10 g
# [11] = cultivar Arjuna, Stein Earth, time 1 week, PVAc/PVAl, dosage 2.5 g
# [12] = cultivar Arjuna, Stein Earth, time 1 week, PVAc/PVAl, dosage 10 g
# [13] = cultivar Arjuna, Stein Earth, time 2 weeks, Association Polymer, dosage 10 g
# [14] = cultivar Arjuna, Stein Earth, time 2 weeks, PVAc/PVAl, dosage 10 g
# [15] = hybrid Centaurus, 98% Sand, time 1 week, Association Polymer, dosage 4 g
# [16] = hybrid Centaurus, 98% Sand, time 1 week, Association Polymer, dosage 10 g
# [17] = hybrid Centaurus, 98% Sand, time 1 week, PVAc/PVAl, dosage 4 g
# [18] = hybrid Centaurus, 98% Sand, time 1 week, PVAc/PVAl, dosage 10 g
# [19] = hybrid Centaurus, 98% Sand, time 2 weeks, Association Polymer, dosage 4 g
# [20] = hybrid Centaurus, 98% Sand, time 2 weeks, Association Polymer, dosage 10 g
# [21] = hybrid Centaurus, 98% Sand, time 2 weeks, PVAc/PVAl, dosage 4 g
# [22] = hybrid Centaurus, 98% Sand, time 2 weeks, PVAc/PVAl, dosage 10 g
# [23] = hybrid Centaurus, Stein Earth, time 1 week, Association Polymer, dosage 4 g
# [24] = hybrid Centaurus, Stein Earth, time 1 week, Association Polymer, dosage 10 g
# [25] = hybrid Centaurus, Stein Earth, time 1 week, PVAc/PVAl, dosage 4 g
# [26] = hybrid Centaurus, Stein Earth, time 1 week, PVAc/PVAl, dosage 10 g
# [27] = hybrid Centaurus, Stein Earth, time 2 weeks, Association Polymer, dosage 4 g
# [28] = hybrid Centaurus, Stein Earth, time 2 weeks, Association Polymer, dosage 10 g
# [29] = hybrid Centaurus, Stein Earth, time 2 weeks, PVAc/PVAl, dosage 4 g
# [30] = hybrid Centaurus, Stein Earth, time 2 weeks, PVAc/PVAl, dosage 10 g
# [31] = hybrid F7 x F2, 10 g/kg, 90% Sand, time 1 week, Association Polymer
# [32] = hybrid F7 x F2, 10 g/kg, 90% Sand, time 1 week, PVAc/PVAl
# [33] = hybrid F7 x F2, 10 g/kg, 90% Sand, time 2 weeks, Association Polymer
# [34] = hybrid F7 x F2, 10 g/kg, 90% Sand, time 2 weeks, PVAc/PVAl
# [35] = hybrid F7 x F2, 10 g/kg, 95% Sand, time 1 week, Association Polymer
# [36] = hybrid F7 x F2, 10 g/kg, 95% Sand, time 1 week, PVAc/PVAl
# [37] = hybrid F7 x F2, 10 g/kg, 95% Sand, time 2 weeks, Association Polymer
# [38] = hybrid F7 x F2, 10 g/kg, 95% Sand, time 2 weeks, PVAc/PVAl
# [39] = hybrid F7 x F2, 10 g/kg, 98% Sand, time 1 week, Association Polymer
# [40] = hybrid F7 x F2, 10 g/kg, 98% Sand, time 1 week, PVAc/PVAl
# [41] = hybrid F7 x F2, 10 g/kg, 98% Sand, time 2 weeks, Association Polymer
# [42] = hybrid F7 x F2, 10 g/kg, 98% Sand, time 2 weeks, PVAc/PVAl
# [43] = hybrid F7 x F2, 10 g/kg, 100% Sand, time 1 week, Association Polymer
# [44] = hybrid F7 x F2, 10 g/kg, 100% Sand, time 1 week, PVAc/PVAl
# [45] = hybrid F7 x F2, 10 g/kg, 100% Sand, time 2 weeks, Association Polymer
# [46] = hybrid F7 x F2, 10 g/kg, 100% Sand, time 2 weeks, PVAc/PVAl
smiles,measurement,setting,value
CCCCOC(=O)N(C)SN(C)C(=O)Oc1cccc2c1OC(C)(C)C2 [furathiocarb],Ratings for corn rootworm damage,"corn rootworms; Granule, 0.1 g m⁻¹",3.2
same,Ratings for corn rootworm damage,"corn rootworms; seed treatment Association Polymer, 10 g/kg",4.5
same,Ratings for corn rootworm damage,"corn rootworms; seed treatment PVAc/PVAl, 10 g/kg",4.1
same,Ratings for corn rootworm damage,"corn rootworms; seed treatment PVAc/PVAl, 30 g/kg",4.8
same,"Solubility of Furathiocarb, ppm",[1]; 1000 ppm Alipal CO-433,25 ppm
same,"Solubility of Furathiocarb, ppm",[1]; 1000 ppm Alipal EP110,16 ppm
same,"Solubility of Furathiocarb, ppm",[1]; 1000 ppm Ethomeen T/15,89 ppm
same,"Solubility of Furathiocarb, ppm",[1]; 1000 ppm Pluronic F68,15 ppm
same,"Solubility of Furathiocarb, ppm",[1]; 1000 ppm Triton N101,220 ppm
same,enhancement in the solubility (increase),[1]; Ethomeen T/15 solution,5 fold
same,"Solubility of Furathiocarb, ppm",[1]; H₂O,15 ppm
same,enhancement in the solubility (increase),[1]; Triton N101 solution,14 fold
same,Percent survival of H. virescens larvae,[2]; [3],4%
same,Scores of damage caused by H. virescens larvae,[2]; [3],2.1
same,Percent survival of H. virescens larvae,[2]; [4],6%
same,Scores of damage caused by H. virescens larvae,[2]; [4],2.5
same,Percent survival of H. virescens larvae,[2]; [5],50%
same,Scores of damage caused by H. virescens larvae,[2]; [5],4.9
same,Percent survival of H. virescens larvae,[2]; [6],28%
same,Scores of damage caused by H. virescens larvae,[2]; [6],3.4
same,Percent survival of H. virescens larvae,[2]; [7],8%
same,Scores of damage caused by H. virescens larvae,[2]; [7],2.7
same,Percent survival of H. virescens larvae,[2]; [8],37%
same,Scores of damage caused by H. virescens larvae,[2]; [8],4.7
same,Percent survival of H. virescens larvae,[2]; [9],30%
same,Scores of damage caused by H. virescens larvae,[2]; [9],3.3
same,Percent survival of H. virescens larvae,[2]; [10],2%
same,Scores of damage caused by H. virescens larvae,[2]; [10],1.8
same,Percent survival of H. virescens larvae,[2]; [11],22%
same,Scores of damage caused by H. virescens larvae,[2]; [11],3.3
same,Percent survival of H. virescens larvae,[2]; [12],8%
same,Scores of damage caused by H. virescens larvae,[2]; [12],2.1
same,Percent survival of H. virescens larvae,[2]; [13],9%
same,Scores of damage caused by H. virescens larvae,[2]; [13],2.7
same,Percent survival of H. virescens larvae,[2]; [14],21%
same,Scores of damage caused by H. virescens larvae,[2]; [14],3.5
same,Percent survival of H. virescens larvae,[2]; [15],2%
same,Scores of damage caused by H. virescens larvae,[2]; [15],1.5
same,Percent survival of H. virescens larvae,[2]; [16],0%
same,Scores of damage caused by H. virescens larvae,[2]; [16],1.3
same,Percent survival of H. virescens larvae,[2]; [17],8%
same,Scores of damage caused by H. virescens larvae,[2]; [17],1.9
same,Percent survival of H. virescens larvae,[2]; [18],12%
same,Scores of damage caused by H. virescens larvae,[2]; [18],2.0
same,Percent survival of H. virescens larvae,[2]; [19],31%
same,Scores of damage caused by H. virescens larvae,[2]; [19],4.1
same,Percent survival of H. virescens larvae,[2]; [20],13%
same,Scores of damage caused by H. virescens larvae,[2]; [20],2.8
same,Percent survival of H. virescens larvae,[2]; [21],46%
same,Scores of damage caused by H. virescens larvae,[2]; [21],5.5
same,Percent survival of H. virescens larvae,[2]; [22],51%
same,Scores of damage caused by H. virescens larvae,[2]; [22],5.8
same,Percent survival of H. virescens larvae,[2]; [23],7%
same,Scores of damage caused by H. virescens larvae,[2]; [23],1.9
same,Percent survival of H. virescens larvae,[2]; [24],10%
same,Scores of damage caused by H. virescens larvae,[2]; [24],2.0
same,Percent survival of H. virescens larvae,[2]; [25],25%
same,Scores of damage caused by H. virescens larvae,[2]; [25],2.8
same,Percent survival of H. virescens larvae,[2]; [26],10%
same,Scores of damage caused by H. virescens larvae,[2]; [26],2.0
same,Percent survival of H. virescens larvae,[2]; [27],49%
same,Scores of damage caused by H. virescens larvae,[2]; [27],4.4
same,Percent survival of H. virescens larvae,[2]; [28],22%
same,Scores of damage caused by H. virescens larvae,[2]; [28],3.0
same,Percent survival of H. virescens larvae,[2]; [29],32%
same,Scores of damage caused by H. virescens larvae,[2]; [29],3.9
same,Percent survival of H. virescens larvae,[2]; [30],27%
same,Scores of damage caused by H. virescens larvae,[2]; [30],3.4
same,Percent survival of H. virescens larvae,[2]; [31],34%
same,Scores of damage caused by H. virescens larvae,[2]; [31],4.9
same,Percent survival of H. virescens larvae,[2]; [32],48%
same,Scores of damage caused by H. virescens larvae,[2]; [32],6.0
same,Percent survival of H. virescens larvae,[2]; [33],42%
same,Scores of damage caused by H. virescens larvae,[2]; [33],4.2
same,Percent survival of H. virescens larvae,[2]; [34],61%
same,Scores of damage caused by H. virescens larvae,[2]; [34],4.9
same,Percent survival of H. virescens larvae,[2]; [35],16%
same,Scores of damage caused by H. virescens larvae,[2]; [35],3.2
same,Percent survival of H. virescens larvae,[2]; [36],48%
same,Scores of damage caused by H. virescens larvae,[2]; [36],6.4
same,Percent survival of H. virescens larvae,[2]; [37],50%
same,Scores of damage caused by H. virescens larvae,[2]; [37],4.4
same,Percent survival of H. virescens larvae,[2]; [38],64%
same,Scores of damage caused by H. virescens larvae,[2]; [38],4.8
same,Percent survival of H. virescens larvae,[2]; [39],16%
same,Scores of damage caused by H. virescens larvae,[2]; [39],4.2
same,Percent survival of H. virescens larvae,[2]; [40],36%
same,Scores of damage caused by H. virescens larvae,[2]; [40],6.5
same,Percent survival of H. virescens larvae,[2]; [41],37%
same,Scores of damage caused by H. virescens larvae,[2]; [41],3.7
same,Percent survival of H. virescens larvae,[2]; [42],75%
same,Scores of damage caused by H. virescens larvae,[2]; [42],5.2
same,Percent survival of H. virescens larvae,[2]; [43],18%
same,Scores of damage caused by H. virescens larvae,[2]; [43],3.5
same,Percent survival of H. virescens larvae,[2]; [44],40%
same,Scores of damage caused by H. virescens larvae,[2]; [44],5.1
same,Percent survival of H. virescens larvae,[2]; [45],45%
same,Scores of damage caused by H. virescens larvae,[2]; [45],4.0
same,Percent survival of H. virescens larvae,[2]; [46],42%
same,Scores of damage caused by H. virescens larvae,[2]; [46],3.6

# — patent EP0302824A2 (priority 1987, dated 1989)
